test: A2B permeability (Papp) in MDCK-MDR1 cell monolayers; format: in vitro ADME; settings: dog, MDCK-MDR1 monolayer, apical to basolateral (A-B), 10 μM test compound, HBSS pH 7.4, duplicate
Protocol: Permeability Data for Compounds was Collected Using the Following Experimental Procedure:
MDCK-MDR1 cells obtained from the NIH (Rockville, Md., USA) are used between passage numbers 6-30. Cells are seeded onto Millipore Multiscreen Transwell plates at 3.4×10^5 cells/cm2. The cells are cultured in DMEM and media is changed on day 3. On day 4 the permeability study is performed. Cell culture and assay incubations are carried out at 37° C. in an atmosphere of 5% CO2 with a relative humidity of 95%. On the day of the assay, the monolayers are prepared by rinsing both apical and basolateral surfaces twice with Hanks Balanced Salt Solution (HBSS) at the desired pH warmed to 37° C. Cells are then incubated with HBSS at the desired pH in both apical and basolateral compartments for 40 min to stabilise physiological parameters.
The dosing solutions are prepared by diluting test compound with assay buffer to give a final test compound concentration of 10 μM (final DMSO concentration of 1% v/v). The fluorescent integrity marker lucifer yellow is also included in the dosing solution. Analytical standards are prepared from test compound DMSO dilutions and transferred to buffer, maintaining a 1% v/v DMSO concentration.
Typical assay buffer is composed of supplemented HBSS pH 7.4 but a range of other buffers and pH values can be used.
For assessment of A-B permeability, HBSS is removed from the apical compartment and replaced with test compound dosing solution. The apical compartment insert is then placed into a companion plate containing fresh buffer (containing 1% v/v DMSO). For assessment of B-A permeability, HBSS is removed from the companion plate and replaced with test compound dosing solution. Fresh buffer (containing 1% v/v DMSO) is added to the apical compartment insert, which is then placed into the companion plate.
At 60 min the apical compartment inserts and the companion plates are separated and apical and basolateral samples diluted for analysis.
Test compound permeability is assessed in duplicate. Compounds of known permeability characteristics are run as controls on each assay plate.
Test and control compounds are quantified by LC-MS/MS cassette analysis using a 7-point calibration with appropriate dilution of the samples. Cyprotex generic analytical conditions are used. The starting concentration (CO) is determined from the dosing solution and the experimental recovery calculated from CO and both apical and basolateral compartment concentrations.
The integrity of the monolayer throughout the experiment is checked by monitoring lucifer yellow permeation using fluorimetric analysis. Lucifer yellow permeation is high if monolayers have been damaged. If a lucifer yellow Papp value is above a pre-defined threshold in one well, but the derived Papp result for test compound or marker compound in that well is qualitatively similar to that determined in the remaining replicate well (within the lucifer yellow threshold) then, based upon the scientific judgment of the responsible scientist, the cell monolayer may be considered acceptable. If this is not the case, then the result from the affected monolayer is excluded and an n=1 result is reported, or the compound may be retested. If lucifer yellow Papp values are above the threshold in both replicate wells for a test compound, the compound is re-tested. If this re-occurs upon repeat in both wells then toxicity or inherent fluorescence of the test compound is assumed. No further experiments are performed in this instance.
The permeability coefficient (Papp) for each compound is calculated from the following equation: […]
Where dQ/dt is the rate of permeation of the drug across the cells, CO is the donor compartment concentration at time zero and A is the area of the cell monolayer. C0 is obtained from analysis of the dosing solution.

Row | Papp A→B at 60 min, 10 μM [×10⁻⁶ cm/s] | Compound
1 | 2.19 | CCn1cc(C(=O)N2CCOCC2)c(=O)c2cc(OC3Cc4ccccc4C3)cnc21 [Example 1, 1-Ethyl-6-indan-2-yloxy-3-(morpholine-4-carbonyl)-1,8-naphthyridin-4-one]
2 | 2.56 | CCn1cc(C(=O)N2CCO[C@H](C)C2)c(=O)c2cc(OC3Cc4ccccc4C3)cnc21 [Example 2, 1-Ethyl-6-indan-2-yloxy-3-[(2R)-2-methylmorpholine-4-carbonyl]-1,8-naphthyridin-4-one]
3 | 1.26 | CCn1cc(C(=O)N2CCOC(C)(C)C2)c(=O)c2cc(OC3Cc4ccccc4C3)cnc21 [Example 4, 3-(2,2-dimethylmorpholine-4-carbonyl)-1-ethyl-6-indan-2-yloxy-1,8-naphthyridin-4-one]
4 | 3.41 | CCn1cc(C(=O)N2C[C@@H](C)O[C@@H](C)C2)c(=O)c2cc(OC3Cc4ccccc4C3)cnc21 [Example 5, 3-[(2R,6S)-2,6-dimethylmorpholine-4-carbonyl]-1-ethyl-6-indan-2-yloxy-1,8-naphthyridin-4-one]
5 | 1.7 | CCn1cc(C(=O)N2C[C@H](C)O[C@@H](C)C2)c(=O)c2cc(OC3Cc4ccccc4C3)cnc21 [Example 6, 3-[(2S,6S)-2,6-dimethylmorpholine-4-carbonyl]-1-ethyl-6-indan-2-yloxy-1,8-naphthyridin-4-one]
6 | 1.79 | CCn1cc(C(=O)N2C[C@@H](C)O[C@H](C)C2)c(=O)c2cc(OC3Cc4ccccc4C3)cnc21 [Example 7, 3-[(2R,6R)-2,6-dimethylmorpholine-4-carbonyl]-1-ethyl-6-indan-2-yloxy-1,8-naphthyridin-4-one]
7 | 2.65 | CCn1cc(C(=O)N2CC(C)(C)OC(C)(C)C2)c(=O)c2cc(OC3Cc4ccccc4C3)cnc21 [Example 8, 1-Ethyl-6-indan-2-yloxy-3-(2,2,6,6-tetramethylmorpholine-4-carbonyl)-1,8-naphthyridin-4-one]
8 | 1.99 | CCn1cc(C(=O)N2[C@H](C)COC[C@@H]2C)c(=O)c2cc(OC3Cc4ccccc4C3)cnc21 [Example 10, 3-[(3R,5S)-3,5-dimethylmorpholine-4-carbonyl]-1-ethyl-6-indan-2-yloxy-1,8-naphthyridin-4-one]
9 | 3.83 | CCn1cc(C(=O)N2[C@H](C)COC[C@H]2C)c(=O)c2cc(OC3Cc4ccccc4C3)cnc21 [Example 11, 3-[(3R,5R)-3,5-dimethylmorpholine-4-carbonyl]-1-ethyl-6-indan-2-yloxy-1,8-naphthyridin-4-one]
10 | 0.87 | CCn1cc(C(=O)N2C[C@H]3C[C@@H]2CO3)c(=O)c2cc(OC3Cc4ccccc4C3)cnc21 [Example 17, 1-Ethyl-6-indan-2-yloxy-3-[(1R,4R)-2-oxa-5-azabicyclo[2.2.1]heptane-5-carbonyl]-1,8-naphthyridin-4-one]
11 | 1.79 | CCn1cc(C(=O)N2CC3CCC(C2)O3)c(=O)c2cc(OC3Cc4ccccc4C3)cnc21 [Example 19, 1-Ethyl-6-indan-2-yloxy-3-(8-oxa-3-azabicyclo[3.2.1]octane-3-carbonyl)-1,8-naphthyridin-4-one]
12 | 1.56 | CCn1cc(C(=O)N2CCOCC2)c(=O)c2cc(OC3Cc4ccccc4C3)ncc21 [Example 26, 1-Ethyl-6-indan-2-yloxy-3-(morpholine-4-carbonyl)-1,7-naphthyridin-4-one]
13 | 4.78 | CCn1cc(C(=O)N2CCOCC2)c(=O)c2cc(OC3Cc4ccccc4C3)nnc21 [Example 52, 8-Ethyl-3-indan-2-yloxy-6-(morpholine-4-carbonyl)pyrido[2,3-c]pyridazin-5-one]
14 | 1.55 | CCn1cc(C(=O)N2CC3CCC(C2)O3)c(=O)c2cc(OC3Cc4ccccc4C3)nnc21 [Example 63, 8-Ethyl-3-indan-2-yloxy-6-(8-oxa-3-azabicyclo[3.2.1]octane-3-carbonyl)pyrido[2,3-c]pyridazin-5-one]
15 | 0.98 | CCn1cc(C(=O)N2CC3COCC(C3)C2)c(=O)c2cc(OC3Cc4ccccc4C3)nnc21 [Example 65, 8-Ethyl-3-indan-2-yloxy-6-(3-oxa-7-azabicyclo[3.3.1]nonane-7-carbonyl)pyrido[2,3-c]pyridazin-5-one]

Row | Compound | Papp A→B at 60 min, 10 μM [×10⁻⁶ cm/s]
16 | CCn1cc(C(=O)N2C3COCC2C3)c(=O)c2cc(OC3Cc4ccccc4C3)cnc21 [Example 16, 1-Ethyl-6-indan-2-yloxy-3-(3-oxa-6-azabicyclo[3.1.1]heptane-6-carbonyl)-1,8-naphthyridin-4-one] | 2.06
17 | CCn1cc(C(=O)N2C3CCC2COC3)c(=O)c2cc(OC3Cc4ccccc4C3)cnc21 [Example 18, 1-Ethyl-6-indan-2-yloxy-3-(3-oxa-8-azabicyclo[3.2.1]octane-8-carbonyl)-1,8-naphthyridin-4-one] | 1.41
18 | CCn1cc(C(=O)N2C3CCCC2COC3)c(=O)c2cc(OC3Cc4ccccc4C3)cnc21 [Example 20, 1-Ethyl-6-indan-2-yloxy-3-(3-oxa-9-azabicyclo[3.3.1]nonane-9-carbonyl)-1,8-naphthyridin-4-one] | 2.01
19 | CCn1cc(C(=O)N2CC3(CCOCC3)C2)c(=O)c2cc(OC3Cc4ccccc4C3)cnc21 [Example 23, 1-Ethyl-6-indan-2-yloxy-3-(7-oxa-2-azaspiro[3.5]nonane-2-carbonyl)-1,8-naphthyridin-4-one] | 1.24
